Four molecules from patent US20180236089A1, “RADIATION EMITTING PEPTIDE NUCLEIC ACID CONJUGATES AND USES THEREOF FOR DIAGNOSIS, IMAGING, AND TREATMENT OF DISEASES, CONDITIONS AND DISORDERS” (Yissum Research Development Company of the Hebrew …, priority 2015, published 2018) can be followed below.

Data set [1] is described as follows: UV-Vis absorption of BisQ, TO and PNA FIT probes, alone or hybridized to DNA. The settings on record: for λmaxabs: UV-Vis spectrum, maximal absorption. The data set is classed as physicochemical.
Data set [2] deals with Panc-1 cells. Nature of the data set: Hybridization and imaging in living cells (confocal microscopy), Panc-1. The data set is classed as cell-based, human. To be noted: Panc-1 expressing mutated KRAS, 0.5 μM, 3 hours. On the procedure:
(§1) Three cell lines were used: Panc-1, BxPC-3 (human pancreatic carcinoma, epithelial-like), and HT-29 (human colon adenocarcinoma grade II). Cell lines were purchased from the American Type Culture Collection (ATCC, Manassas, Va., USA). Panc-1 and HT-29 expressing mutated and wild type KRAS, respectively, were cultured (37° C., 5% CO2), in DMEM medium and supplemented with 10% fetal calf serum, 2 mM L-glutamine, and 0.1 mg/mL Streptomycin (Beit Haemek Biological Industries, Israel). BxPC-3 cells expressing wild type KRAS were cultured in RPMI 1640 medium supplemented with 10% fetal calf serum, 2 mM L-glutamine, and 0.1 mg/mL Streptomycin.
(§2) Twenty four hours prior to PNA addition, Panc-1, HT-29, and BxPC-3 were plated separately on chamber slides (Ibidi GmbH, Munich, Germany) until reaching 70-80% confluence.
(§3) Before adding the PNAs, the medium was replaced and the cells were incubated (37° C., humidified atmosphere containing 5% CO2) with 0.5 μM of PNA1 and PNA2 in complete medium. Cells were washed with PBS (×3) prior to cell imaging and the intracellular fluorescence was measured after 3 hours by confocal microscopy. Design and synthesis of a new surrogate base (BisQ) with the unique feature of far-red emission. BisQ was introduced into PNAs that targets the mutated kRAS oncogene.

Data set [3] has as its system BxPC-3 cells. The data set is described as follows: Hybridization and imaging in living cells (confocal microscopy), BxPC-3. The format is cell-based, human. The settings on record: BxPC-3 expressing wild type KRAS, 0.5 μM, 3 hours. As for the experimental part:
as §1, §2, §3

Data set [4] concerns HT-29 cells. Nature of the data set: Hybridization and imaging in living cells (confocal microscopy), HT-29. The format is cell-based, human. The settings on record: HT-29 expressing wild type KRAS, 0.5 μM, 3 hours. As for the experimental part: as §1, §2, §3

Values joined by “and” are separate entries in the source; they are usually repeats but may differ in a detail not shown here. Equal values may be shown once. Where no end group is shown, it is not given here. [ ]: non-standard residue; d: D form. BisQ = dye (BisQ) placed in the PNA in place of a base

For `CN1C(=Cc2cc[n+](C)c3ccccc23)Sc2ccccc21` [TO, thiazole orange, reference compound], in data set [1], the εmax was 43,000 M^−1cm^−1 and the λmaxabs came out at 505 nm.
As to “(D-Lys)4-CCTCGACT[BisQ]CCGCATCC-NH2 (chain 1 [dK][dK][dK][dK]CCTCGACT-BisQ; numbers in words are those of the source; cysteine pairing not given here; also: PNA (peptide nucleic acid), BisQ joins chain 1 and chain 2 within one strand) [PNA2, BisQ paired with T; PNA FIT probe targeting mutated KRAS]”, the intracellular red fluorescence entry in data set [2], in data set [3] and in data set [4] was “red emission solely in Panc-1 cells” throughout. Further, in data set [1], the εmax was 82,219 M^−1cm^−1. The λmaxabs in data set [1] was 593 nm.
In the case of “(D-Lys)4-CCTCGA[BisQ]TACCGCATCC-NH2 (chemistry not fully specified) [PNA1, BisQ paired with G; PNA FIT probe targeting mutated KRAS]”, in data set [1], the εmax is 83,000 M^−1cm^−1; the λmaxabs is 591 nm and 588 nm.
As for Fmoc-Aeg(Dy)-OH [BisQ], in data set [1], the εmax was 41,370 M^−1cm^−1 and the λmaxabs was 591 nm.
